Like-named read-outs stand apart in the source and are kept apart here.
Key:
[1] = Pharmacokinetics in CD-1 mice, IV; type: in vivo; conditions: for Auclast / Cmax / MRT inf / Tmax / half-life / AUC(0-t) / clearance / Vd: intravenously 5 mg/kg; for blood–brain barrier crossing (in words) / clearance (in words): IV 5 mg/kg; for Cmax / MRT inf / Tmax / half-life / AUC(0-t) / clearance / Vd: male, mouse, iv; for half-life: read-out: Terminal t1/2; for Vd: read-out: Vss
Method: Analysis of pharmacokinetic parameters of 18A and 18B was performed by the Preclinical Pharmacology Core Lab (UT Southwestern Medical Center). Animal work described in this manuscript has been approved and conducted under the oversight of the UT Southwestern Institutional Animal Care and Use Committee and were carried out in accordance with relevant guidelines and regulations. UT Southwestern uses the “Guide for the Care and Use of Laboratory Animals” when establishing animal research standards. All methods are reported in accordance with ARRIVE guidelines. Compounds were suspended in 10% DMSO/20% PEG400/70% (30% HPβCD in water) at 0.484 mg/mL (18A) or at 0.5 mg/mL (18B). Compounds were administered to male CD1 mice (Charles River Laboratories, Wilmington, MA) IV via the tail vein at 5 mg/kg (0.30 mL dose volume for 18A, 0.35 mL dose volume for 18B). Mice were randomly assigned to time point groups and all investigators were aware of these assignments. After inhalation overdose of CO2, blood and tissues were collected from three mice per timepoint, at 5, 15, 30, 60, 240, 360, and 480 min post dosing, such that a mean concentration and standard deviation about the mean could be reported. Blood and tissues were also collected from mice dosed with Vehicle only at 480 min. Blood was collected using the anticoagulant ACD (acidified citrate dextrose) and plasma was isolated from the blood by centrifugation at 4 °C, 9600 × g for 10 min. After rinsing with PBS, tissues were weighed, snap-frozen in liquid nitrogen and stored at − 80 °C until processing. Brain was homogenized in a three-fold volume of PBS (weight by volume). Plasma and brain homogenates were extracted using a two-fold volume of methanol containing 0.15% formic acid and 37.5 ng/ml of an internal standard, n-benzylbenzamide (Sigma, St. Louis, MO). Samples were vortexed for 15 s, incubated at RT for 10 min and then centrifuged at 16,100 × g for 5 min at 4 °C. The supernatant was spun a second time and then analyzed by LC–MS/MS using a Sciex (Framingham, MA) 4000QTRAP® (positive ESI, multiple-reaction monitoring mode) after separation on an Agilent (Santa Clara, CA) C18 XDB column (5 micron packing, 50 × 4.6 mm size). The following separation gradient was used (Buffer A: water with 0.1% formic acid; Buffer B: MeOH with 0.1% formic acid): 0–1 min 5% B, 1–1.5 min gradient to 100% B, 1.5–3 min 100% B, 3–3.2 min gradient to 5% B, 3.2–4.5 min 5% B. For 18A, the transition (m/z) of 336.0/305.0 was monitored (retention time: 2.08 min); for 18B, the transition (m/z) of 336.1/169.0 was monitored (retention time: 2.09 min). The transition 212.1/91.1 (retention time 2.05 min) was monitored for the internal standard, n-benzylbenzamide. Tissues and plasma from untreated mice were used as controls to establish background noise for LC–MS/MS analysis of compound levels. Pharmacokinetic parameters were calculated using sparse sampling and the noncompartmental analysis tool in WinNonlin (Certara Corp, Princeton, NJ) for plasma and brain. Because mice were not perfused prior to collection of brain, the amount of compound estimated to be in the vasculature of the brain was subtracted using the measured plasma concentration and literature values for the volume of residual blood (30 µl/g tissue) in the brain Kwon[102].

PGRN protein levels [2] = experiment: PGRN quantification (Jess) in GRN R493X/+ 14-day differentiated neurons; type: cell-based, human; conditions: GRN R493X/+ 14-day growth factor differentiated neurons, 24 h
Method: (§1) PGRN capillary gel electrophoresis experiments were performed using Jess (Bio-Techne) and data were processed and analyzed using Compass for Simple Western software (version 6.0). Runs were conducted using EZ Standard Pack 1 12–230 kDa (Bio-Techne PS-ST01EZ-8), 12–230 kDa pre-filled plates (PS-PP03), 12–230 kDa separation module (SMW004), anti-rabbit HRP detection (DM-001), RePlex (RP-001), and total protein detection modules (DM-TP01, biotin labeling reagent 042-973) according to the manufacturer’s instructions, and with anti-PGRN primary (Abcam ab208777) diluted 1:50 in milk-free antibody dilution buffer (043–524). The following run settings were used for each experiment: separation time: 25 min, separation voltage: 375 V, RePlex purge time: 30 min, biotin labeling time: 30 min, antibody diluent time: 5 min, primary antibody time: 30 min, secondary antibody time: 30 min, total protein HRP time: 30 min. All intensity quantifications are normalized to the total protein assay quantification unless otherwise indicated.
(§2) For GRN^R493^X/+ NPCs, cells were grown to confluency in 6-well plates according to the above NPC culturing procedure. To each well was directly added 2 µL of 100 µM panobinostat, […], or DMSO only to produce final in-well concentrations of 100 nM or 1 µM, respectively (0.1% DMSO final concentration). […]

PGRN protein levels [3] = experiment: PGRN quantification (Jess) in GRN R493X/+ NPCs; type: cell-based, human; conditions: 24 h
Method: as §1, §2

Structure (SMILES)	Auclast ([1]; Brain)	blood–brain barrier crossing (in words) [1]	clearance (in words) [1]	Cmax ([1]; Brain)	MRT inf ([1]; Brain)	Tmax ([1]; Brain)	half-life ([1]; Brain)	AUC(0-t) ([1]; Plasma)	Cmax ([1]; Plasma)	MRT inf ([1]; Plasma)	Tmax ([1]; Plasma)	clearance ([1]; Plasma)	half-life ([1]; Plasma)	Vd ([1]; Plasma)	PGRN protein levels (PGRN protein levels [2])	PGRN protein levels (PGRN protein levels [3])
Cn1ccc2c(-c3cccnc3Oc3ccc(F)cc3)c[nH]c2c1=O [Compound 18B, 3-[2-(4-fluorophenoxy)pyridin-3-yl]-6-methyl-1,6-dihydro-7H-pyrrolo[2,3-c]pyridin-7-one]	31579 ng·min/g	readily cross the blood–brain barrier	cleared quite rapidly	1690 ng/g	17.6 min	5 min	73 min	511 ng·h/mL	1620 ng/mL	25.8 min	5 min	5.61 mL/min	140 min	0.145 L	–	–
Cn1cc(-c2cccnc2Oc2ccc(F)cc2)c2cc[nH]c2c1=O [Compound 18A, 4-(2-(4-fluorophenoxy)pyridin-3-yl)-6-methyl-1H-pyrrolo[2,3-c]pyridin-7(6H)-one]	63285 ng·min/g	readily cross the blood–brain barrier	cleared quite rapidly	2970 ng/g	16.7 min	5 min	30 min	658 ng·h/mL	1780 ng/mL	17.9 min	5 min	3.67 mL/min	27 min	0.067 L	–	–
CCS(=O)(=O)Nc1ccc(Oc2ccc(F)cc2F)c(-c2cn(C)c(=O)c3[nH]ccc23)c1 [mivebresib]	–	–	–	–	–	–	–	–	–	–	–	–	–	–	significantly increased PGRN protein levels	significantly increased PGRN protein levels

From publication PMC11032351, “Epigenetic modulation through BET bromodomain inhibitors as a novel therapeutic strategy for progranulin-deficient frontotemporal dementia” (Scientific Reports, 2024)
